Assay results taken from patent US20100125053A1, “Allosteric Modulation of the Dopamine Transporter Protein for the Treatment of HIV-1 Induced Neurologic Dysfunction” (priority 2008, published 2010).

Tested on: striatal synaptosomes
Assay: [3H]leucine uptake assay in rat striatal synaptosomes (electrochemical gradients)
Format: cell-based
Settings: 15 min preincubation, [3H]leucine 10 min
Description: [^3H]Leucine Uptake Assay. […] The uptake assay was performed in duplicate with a final volume of 250 μl. […] TatΔ31-61 and leucine were chosen as negative and positive controls, respectively. Assay tubes were placed in an oxygenated metabolic shaker at 34° C. for 15 min. Subsequently, 1 μM [^3H]leucine (final concentration, 25 μl) was added to each tube and incubation was continued for 10 min at 34° C. in the metabolic shaker. […] Nonspecific uptake for [^3H]leucine and [^3H]DA was determined in the presence of 10 mM L-lysine and 10 μM nomifensine, respectively. Incubation was terminated by the addition of 3 ml of ice-cold assay buffer, followed by immediate filtration through Whatman GF/B glass fiber filters. Filters were washed 3 times with 3 ml ice-cold assay buffer using a Brandel cell harvester.

CC(C)C[C@H](N)C(=O)O [leucine]
inhibition at 1 µM (1 μM): ~10%
inhibition at 10 µM (10 μM, read-out: inhibition / decrease of [3H]leucine uptake): ~40%
